Laboratory results taken from US9113629B2, “4-amino-6-(4-substituted-phenyl)-picolinates and 6-amino-2-(4-substituted-phenyl)-pyrimidine-4-carboxylates and their use as herbicides” (DOW AGROSCIENCES LLC, priority 2013, dated 2015).
Like-named read-outs stand apart in the source and are kept apart here.

Key:
[1] = system: Key Broadleaf Weed and Crop Species; test: Post-emergent Test II herbicidal activity (Table 5); type: in vivo; conditions: post-emergence, 336 h, post-emergent, 14 days after application; for pest or weed control at 70 g/ha: 70 g ai/ha; for pest or weed control at 140 g/ha: 140 g ai/ha
Outline: (§1)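 Visual injury ratings (0 = no injury, 100 = complete kill) were taken 14 d after treatment, relative to untreated plants. Seedlings at the first–second true leaf stage received overhead spray at 187 L/ha; the highest rate was serially diluted to ½×, ¼×, ⅛× and 1/16×.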

[2] = system: Key Grass and Sedge Weeds as well as Grass Crops; test: Post-emergent Test II herbicidal activity (Table 6); type: in vivo; conditions: post-emergence, 336 h; for pest or weed control at 70 g/ha: application rate 70 g ai/ha; for pest or weed control at 140 g/ha: application rate 140 g ai/ha
Outline: as §1

[3] = ABUTH: velvetleaf (Abutilon theophrasti), read-out: Visual Growth Reduction (%) 14 Days After Application ABUTH
[4] = AMARE: redroot pigweed (Amaranthus retroflexus), read-out: Visual Growth Reduction (%) 14 Days After Application AMARE
[5] = BRSNN: oilseed-rape, canola (Brassica napus), read-out: Visual Growth Reduction (%) 14 Days After Application BRSNN
[6] = CHEAL: lambsquarters (Chenopodium album), read-out: Visual Growth Reduction (%) 14 Days After Application CHEAL
[7] = EPHHL: wild poinsettia (Euphorbia heterophylla), read-out: Visual Growth Reduction (%) 14 Days After Application EPHHL
[8] = HELAN: sunflower (Helianthus annuus), read-out: Visual Growth Reduction (%) 14 Days After Application HELAN
[9] = VIOTR: wild pansy (Viola tricolor), read-out: Visual Growth Reduction (%) 14 Days After Application VIOTR
[10] = CYPES: yellow nutsedge (Cyperus esculentus), read-out: Visual Growth Reduction (%) 14 Days After Application, CYPES
[11] = DIGSA: crabgrass (Digitaria sanguinalis), read-out: Visual Growth Reduction (%) 14 Days After Application, DIGSA
[12] = ECHCG: barnyardgrass (Echinochloa crus-galli), read-out: Visual Growth Reduction (%) 14 Days After Application, ECHCG
[13] = ORYSA: rice (Oryza sativa), read-out: Visual Growth Reduction (%) 14 Days After Application, ORYSA
[14] = SETFA: giant foxtail (Setaria faberi), read-out: Visual Growth Reduction (%) 14 Days After Application, SETFA
[15] = SORVU: grain sorghum (Sorghum vulgare), read-out: Visual Growth Reduction (%) 14 Days After Application, SORVU
[16] = TRZSS (wheat, Triticum aestivum), read-out: Visual Growth Reduction (%) 14 Days After Application, TRZSS
[17] = ZEAMX: maize, corn (Zea mays), read-out: Visual Growth Reduction (%) 14 Days After Application, ZEAMX

Structure (SMILES)	pest or weed control at 70 g/ha [1, 3] [%]	pest or weed control at 140 g/ha [1, 3] [%]	pest or weed control at 70 g/ha [1, 4] [%]	pest or weed control at 140 g/ha [1, 4] [%]	pest or weed control at 70 g/ha [1, 5] [%]	pest or weed control at 140 g/ha [1, 5] [%]	pest or weed control at 70 g/ha [1, 6] [%]	pest or weed control at 140 g/ha [1, 6] [%]	pest or weed control at 70 g/ha [1, 7] [%]	pest or weed control at 140 g/ha [1, 7] [%]	pest or weed control at 70 g/ha [1, 8] [%]	pest or weed control at 140 g/ha [1, 8] [%]	pest or weed control at 70 g/ha [1, 9] [%]	pest or weed control at 140 g/ha [1, 9] [%]	melting point [°C]	pest or weed control at 70 g/ha [2, 10] [%]	pest or weed control at 140 g/ha [2, 10] [%]	pest or weed control at 70 g/ha [2, 11] [%]	pest or weed control at 140 g/ha [2, 11] [%]	pest or weed control at 70 g/ha [2, 12] [%]	also measured
COC(=O)c1nc(-c2cc(F)c(C(F)F)cc2F)cc(N)c1Cl [Compound 205]	95 to 100	95 to 100	95 to 100	95 to 100	60 to 74	85 to 94	95 to 100	95 to 100	95 to 100	95 to 100	85 to 94	95 to 100	45 to 59	60 to 74	141.8 to 145	85 to 94	95 to 100	30 to 44	45 to 59	85 to 94	pest or weed control at 140 g/ha [2, 12]: 85 to 94%; pest or weed control at 70 g/ha [2, 13]: 0 to 29%; pest or weed control at 140 g/ha [2, 13]: 0 to 29%; pest or weed control at 70 g/ha [2, 14]: 45 to 59%; pest or weed control at 140 g/ha [2, 14]: 75 to 84%; pest or weed control at 70 g/ha [2, 15]: 60 to 74%; pest or weed control at 140 g/ha [2, 15]: 75 to 84%; pest or weed control at 70 g/ha [2, 16]: 0 to 29%; pest or weed control at 140 g/ha [2, 16]: 30 to 44%; pest or weed control at 70 g/ha [2, 17]: 30 to 44%; pest or weed control at 140 g/ha [2, 17]: 60 to 74%
COC(=O)c1nc(-c2cc(F)c(C#N)cc2F)nc(N)c1OC [Compound 208]	0 to 29	0 to 29	0 to 29	0 to 29	0 to 29	0 to 29	0 to 29	0 to 29	30 to 44	45 to 59	0 to 29	45 to 59	0 to 29	0 to 29	165 to 166.5	0 to 29	0 to 29	0 to 29	0 to 29	0 to 29	pest or weed control at 140 g/ha [2, 12]: 0 to 29%; pest or weed control at 70 g/ha [2, 13]: 0 to 29%; pest or weed control at 140 g/ha [2, 13]: 0 to 29%; pest or weed control at 70 g/ha [2, 14]: 0 to 29%; pest or weed control at 140 g/ha [2, 14]: 0 to 29%; pest or weed control at 70 g/ha [2, 15]: 0 to 29%; pest or weed control at 140 g/ha [2, 15]: 0 to 29%; pest or weed control at 70 g/ha [2, 16]: 0 to 29%; pest or weed control at 140 g/ha [2, 16]: 0 to 29%; pest or weed control at 70 g/ha [2, 17]: 0 to 29%; pest or weed control at 140 g/ha [2, 17]: 0 to 29%
